Data as given in article PMC9899896, “Application of a new approach methodology (NAM)-based strategy for genotoxicity assessment of data-poor compounds” (Frontiers in Toxicology, 2023).
Read-outs that look alike come from different tables or passages of the source.

Assays:
[1] = system: human lymphoblastoid TK6 cells; assay: In vitro MicroFlow assay (flow cytometry-based micronucleus test); conditions: for MicroFlow summary classification (MN induction): TK6 cells, 4H exposure, 24-h sampling; for MicroFlow %MN response (text): positive: >2.5 fold-increase in %MN and p < 0.05 vs vehicle
[2] = system: human lymphoblastoid TK6 cells; assay: MultiFlow DNA Damage assay (γH2AX, p53, p-H3, polyploidy); format: cell-based
Procedure: Treated cells were gently resuspended and 25 µL/well was mixed thoroughly with the labeling solution. The plate was incubated for 30 min at room temperature shielded from light.
The γH2AX and p53 endpoints were measured based on their median fluorescence intensity (i.e., mean channel fluorescence or MCF) relative to the DMSO solvent control. The p-H3 and polyploidy endpoints were measured based on their frequencies among all events (i.e., all 2n–4n and polyploidy (8n) DNA content). The equations for calculating γH2AX shift, nuclear p53 shift, % polyploidy, and % p-H3 positive events are shown below.
Latex microspheres were used as counting beads to determine nuclear density.
Litron developed Global Evaluation Factors (GEF) to identify a biologically significant increase in select biomarker levels.
A clastogenic or aneugenic call required two successive concentrations that met or exceeded the GEFs in at least 2 of the 4 respective MoA biomarkers. Chemicals that met or exceeded two GEFs in a single non-cytotoxic concentration were designated as “weak” responses. In cases where both clastogen and aneugen biomarkers exceeded the GEF the MoA was considered pan-genotoxic. In cases where less than two biomarkers met the GEFs, the call was non-genotoxic.

[3] = system: human lymphoblastoid TK6 cells; assay: Integrated NAM-based test strategy (TGx-DDI + MicroFlow + MultiFlow; ToxPi integration of BMCs); conditions: for Integrated hazard conclusion: from TGx-DDI, MicroFlow and MultiFlow calls
[4] = system: structural chromosomal aberrations; conditions: cited from earlier work; for In vitro mammalian chromosomal aberration test result (OECD 473): SCCS
[5] = system: human lymphoblastoid TK6 cells; assay: TGx-DDI transcriptomic biomarker classification (TempO-Seq S1500+) and BMC modeling; conditions: for TGx-DDI summary classification: TK6 cells, 4H exposure; for Strength / consistency of TGx-DDI response (text): across concentrations and the three statistical analyses; for TGx-DDI classification: overall call from 2-DC, PCA, NSC-PA, S9 condition as in Figure 1
MN = conditions: cited from earlier work
[6] = follow-up assay; ref Avlasevich et al., 2021; cited from earlier work
[7] = system: human lymphoblastoid TK6 cells; assay: Viability assessment (propidium iodide fluorescence, flow cytometry); conditions: TK6 cells, ± S9, quantified at 24 h via propidium iodide
%MN = system: %MN; parameters: method as in SCCP, 2006; conditions: ref SCCP, 2006, cited from earlier work
HepaRG™ cells [8] = system: HepaRG™ cells; parameters: method as in Buick et al., 2020; conditions: ref Buick et al., 2020; cited from earlier work
HepaRG™ cells [9] = system: HepaRG™ cells; parameters: method as in Buick et al., 2020; conditions: ref Buick et al., 2020; cited from earlier work; remark: listed apart in the source
[10] = Viability assessment (propidium iodide fluorescence, flow cytometry); conditions: human, TK6 lymphoblastoid cells with S9
[11] = +S9, TK6 cells, 4H and 24H sampling
[12] = -S9, TK6 cells, 4H and 24H sampling
[13] = GEF-based call, in at least one S9 condition
[14] = fold-increase over solvent control
[15] = +S9 (rat liver S9), 3 h recovery
[16] = known apoptogens, ref Avlasevich et al., 2021

Molecule | MicroFlow summary classification (MN induction) ([1]; +S9) | MicroFlow summary classification (MN induction) ([1]; -S9) | MicroFlow %MN response (text) [1] | MultiFlow summary classification (call and MoA) [2, 11] | MultiFlow summary classification (call and MoA) [2, 12] | MultiFlow MoA classification [2, 13] | Integrated hazard conclusion [3] | TGx-DDI summary classification [5, 15] | TGx-DDI summary classification ([5]; -S9) | TGx-DDI classification [5] | other results
O=[N+]([O-])c1cc(O)ccc1NCCCO [NSACB 9, 4-[(3-hydroxypropyl)amino]-3-nitrophenol] | + | + | robust fold-increase in %MN with a clear concentration-response relationship | + C | + C | clastogens | genotoxic in vitro, causing DNA damage via a clastogenic MoA | + | + |  | MultiFlow biomarkers with responses [2, 14]: 4H and 24H ɣH2AX; Strength of MultiFlow biomarker response (text) ([2]; listed as 9): most robust increases; Strength of MultiFlow biomarker response (text) ([2]; listed as NSACB #9): strong fold-increases in clastogenic biomarkers (i.e., 4H and 24H ɣH2AX) in both S9 conditions; Chromosomal aberration test result ([4]; in the presence of S9, ref SCCP, 2007): induced structural chromosomal aberrations; In vitro mammalian chromosomal aberration test result (OECD 473) ([4]; ref SCCP, 2007, 2013): positive; Chromosomal aberration test result ([4]; without S9, ref SCCP, 2007): equivocal; Strength / consistency of TGx-DDI response (text) [5]: moderate DDI response
carbonyl cyanide m-chlorphenyl hydrazone [CCCP] |  |  |  |  |  |  |  |  |  |  | MicroFlow MN result (MN; [16]): induce MN; MultiFlow classification [6]: non-genotoxicants
CCCOCC(C)OCC(C)O (stereo not shown) [NSACB 10, 1-(1-methyl-2-propoxyethoxy)-2-propanol] |  |  |  |  |  |  | likely irrelevant positives in the MN test |  |  |  | Effect on cell viability [7]: did not impact viability up to the highest concentration of 10 mM
OC[C@@H](O)[C@@H](O)[C@H](O)[C@H](O)CO [DMANN, D-mannitol, reference compound] |  | - | not observed | - | - |  |  | - | - | non-DDI | Effect on cell viability [7]: no decrease in viability
Nc1cccc(N)n1 [NSACB 5, 2,6-diaminopyridine] | + | + | robust fold-increase in %MN with a clear concentration-response relationship | + C | + C | clastogens | genotoxic in vitro, causing DNA damage via a clastogenic MoA | + |  | DDI across all concentrations | MultiFlow biomarkers with responses [2, 14]: 4H p53 and 4H ɣH2AX; Strength of MultiFlow biomarker response (text) ([2]; listed as 5): most robust increases; Strength of MultiFlow biomarker response (text) ([2]; listed as NSACB #5): strong response in clastogen-related biomarkers in both S9 conditions; ToxPi profile of multiplexed endpoint BMCs ([3]; six endpoints: TGx-DDI, MN, 4H/24H p53, 4H/24H ɣH2AX): almost no slices protruding from the center; Chromosomal aberration test result ([4]; continuous treatment (24H) without S9, ref SCCS, 2013): clastogenic; In vitro mammalian chromosomal aberration test result (OECD 473) ([4]; ref SCCP, 2007, 2013): positive; Chromosomal aberration test result ([4]; short-term (6H) treatment with S9, ref SCCS, 2013): clastogenic; TGx-DDI BMC potency ranking (bootstrapped median gene BMC) ([5]; BMR 1 standard deviation, compounds with concordant positive calls): greatest median gene BMC; Strength / consistency of TGx-DDI response (text) [5]: strongest responses
C[C@H]1CCC/C=C/[C@@H]2C[C@H](O)C[C@H]2[C@H](O)/C=C/C(=O)O1 [brefeldin A] |  |  |  |  |  |  |  |  |  |  | MicroFlow MN result (MN; [16]): induce MN; MultiFlow classification [6]: non-genotoxicants
COc1ccc(NCCO)cc1N [NSACB 7, 2-[(3-amino-4-methoxyphenyl)amino]ethanol] | + | + |  | + C | + C | clastogens | genotoxic in vitro, causing DNA damage via a clastogenic MoA | + | + | DDI across all concentrations except the lowest | MicroFlow %MN response (text) ([1]; listed as 7): robust fold-increase in %MN with a clear concentration-response relationship; MicroFlow %MN response (text) ([1]; listed as NSACB #7): stronger %MN frequency in the +S9 condition at the highest concentration; Strength of MultiFlow biomarker response (text) [2]: more moderate responses; MultiFlow biomarkers with responses [2, 14]: 4H p53 and 4H ɣH2AX; In vitro micronucleus result (OECD 487) (%MN; with S9): statistically significant and biologically relevant increase in the frequency of %MN; In vitro micronucleus result (OECD 487) (%MN; without S9): equivocal; Strength / consistency of TGx-DDI response (text) [5]: strongest responses
C/C=C(/C)C(=O)O[C@H]1C(C)=C2[C@H]([C@@H]1OC(=O)CCCCCCC)[C@@](C)(OC(C)=O)C[C@H](OC(=O)CCC)[C@@]1(O)[C@H]2OC(=O)[C@@]1(C)O [thapsigargin] |  |  |  |  |  |  |  |  |  |  | MicroFlow MN result (MN): induce MN
COc1cc2c(c(OC)c1OC)-c1ccc(OC)c(=O)cc1[C@@H](NC(C)=O)CC2 [colchicine] |  |  |  |  |  |  |  |  |  |  | TGx-DDI classification (HepaRG™ cells [8]): negative (non-DDI); MN result (HepaRG™ cells [9]): positive
Cc1ccc(NCCO)c([N+](=O)[O-])c1 [NSACB 8, 2-[(4-methyl-2-nitrophenyl)amino]ethanol] | + | - |  | - | - | non-genotoxic | somewhat ambiguous | + | - | DDI | MicroFlow %MN response (text) ([1]; listed as 8): robust fold-increase in %MN with a clear concentration-response relationship; MicroFlow %MN response (text) ([1]; listed as #8): only tested positive with S9 conditions; viability at 24 h [10]: 46%; Strength / consistency of TGx-DDI response (text) ([5]; listed as 8): weaker DDI responses; Strength / consistency of TGx-DDI response (text) ([5]; listed as NSACB #8): two DDI calls at the highest concentration by NSC-PA and PCA
Nc1ccc(Cl)cc1C(=O)c1ccccc1 [NSACB 1, 2-amino-5-chlorobenzophenone] | + | + | robust fold-increase in %MN with a clear concentration-response relationship |  |  |  | somewhat ambiguous | + | - | DDI | MultiFlow MoA classification [2]: non-genotoxic; MultiFlow summary classification (call and MoA) [2]: -; MultiFlow biomarkers with responses ([2]; human): moderate to robust response increase in one of the aneugenic biomarkers (i.e., 4H p-H3); viability at 24 h [10]: 43%; Strength / consistency of TGx-DDI response (text) ([5]; listed as #1): weaker DDI responses; Strength / consistency of TGx-DDI response (text) ([5]; listed as NSACB #1): one DDI call at the highest concentration in the NSC-PA only
